# Assay results taken from ChEMBL document CHEMBL4387741, “Optimization of novel reversible Bruton's tyrosine kinase inhibitors identified using Tethering-fragment-based screens” (Bioorg Med Chem, 2019).
# Assays:
# [1] = system: Tyrosine-protein kinase ABL1 (Homo sapiens), P00519 [F317I]; experiment: Inhibition of human phosphorylated ABL1 F317I mutant (S229 to K512 residues) expressed in mammalian expression system at 1 uM by Kinomescan method relative to control
# [2] = molecular target: 5'-AMP-activated protein kinase catalytic subunit alpha-2 (Homo sapiens) (UniProt P54646); experiment: Inhibition of wild-type human partial length AMPK alpha2 (M1 to E306 residues) expressed in bacterial expression system at 1 uM by Kinomescan method relative to control
# [3] = molecular target: Aurora kinase B (Homo sapiens) (UniProt Q96GD4); experiment: Inhibition of wild-type human partial length AURKB (D25 to A303 residues) expressed in mammalian expression system at 1 uM by Kinomescan method relative to control
# [4] = system: Epidermal growth factor receptor (Homo sapiens), P00533 [UNDEFINED MUTATION]; experiment: Inhibition of human partial length EGFR E746-A750del mutant expressed in bacterial expression system at 1 uM by Kinomescan method relative to control
# [5] = system: Receptor-type tyrosine-protein kinase FLT3 (Homo sapiens), P36888 [R834Q]; experiment: Inhibition of human partial length FLT3 R834Q mutant (V592 to Y969 residues) expressed in mammalian expression system at 1 uM by Kinomescan method relative to control
# [6] = molecular target: G protein-coupled receptor kinase 4 (Homo sapiens) (UniProt P32298); experiment: Inhibition of wild-type human full length GRK4 (M1 to C578 residues) expressed in bacterial expression system at 1 uM by Kinomescan method relative to control
# [7] = system: Mast/stem cell growth factor receptor Kit (Homo sapiens), P10721 [D816H]; experiment: Inhibition of human partial length KIT D816H mutant (I571 to D952 residues) expressed in mammalian expression system at 1 uM by Kinomescan method relative to control
# [8] = molecular target: Misshapen-like kinase 1 (Homo sapiens) (UniProt Q8N4C8); experiment: Inhibition of wild-type human partial length MINK (M1 to K312 residues) expressed in mammalian expression system at 1 uM by Kinomescan method relative to control
# [9] = molecular target: Cyclin-dependent kinase 15 (Homo sapiens) (UniProt Q96Q40); experiment: Inhibition of wild-type human full length PFTAIRE2 (M1 to W384 residues) expressed in bacterial expression system at 1 uM by Kinomescan method relative to control
# [10] = molecular target: Serine/threonine-protein kinase N1 (Homo sapiens) (UniProt Q16512); experiment: Inhibition of wild-type human partial length PKN1 (E598 to C948 residues) expressed in bacterial expression system at 1 uM by Kinomescan method relative to control
# [11] = molecular target: Proto-oncogene tyrosine-protein kinase receptor Ret (Homo sapiens) (UniProt P07949); experiment: Inhibition of wild-type human partial length RET (E713 to D1014 residues) expressed in bacterial expression system at 1 uM by Kinomescan method relative to control
# [12] = molecular target: Serine/threonine-protein kinase RIO2 (Homo sapiens) (UniProt Q9BVS4); experiment: Inhibition of wild-type human partial length RIOK2 (M1 to D313 residues) expressed in mammalian expression system at 1 uM by Kinomescan method relative to control
# [13] = molecular target: Serine/threonine-protein kinase 35 (Homo sapiens) (UniProt Q8TDR2); experiment: Inhibition of wild-type human partial length STK35 (G182 to A534 residues) expressed in bacterial expression system at 1 uM by Kinomescan method relative to control
# [14] = molecular target: Tyrosine-protein kinase TXK (Homo sapiens) (UniProt P42681); experiment: Inhibition of wild-type human partial length TXK (L238 to W527 residues) expressed in bacterial expression system at 1 uM by Kinomescan method relative to control
# [15] = molecular target: Non-receptor tyrosine-protein kinase TYK2 (Homo sapiens) (UniProt P29597); experiment: Inhibition of wild-type human partial length TYK2 JH2 pseudokinase domain (G556 to D888 residues) expressed in mammalian expression system at 1 uM by Kinomescan method relative to control
# [16] = system: Tyrosine-protein kinase ABL1 (Homo sapiens), P00519 [H396P]; experiment: Inhibition of human non-phosphorylated ABL1 H396P mutant (S229 to K512 residues) expressed in mammalian expression system at 10 uM by Kinomescan method relative to control
# [17] = system: Tyrosine-protein kinase ABL1 (Homo sapiens), P00519 [M351T]; experiment: Inhibition of human phosphorylated ABL1 M351T mutant (S229 to K512 residues) expressed in mammalian expression system at 10 uM by Kinomescan method relative to control
# [18] = molecular target: Serine/threonine-protein kinase 17A (Homo sapiens) (UniProt Q9UEE5); experiment: Inhibition of wild-type human partial length DRAK1 (R32 to E363 residues) expressed in bacterial expression system at 10 uM by Kinomescan method relative to control
# [19] = molecular target: Dual specificity tyrosine-phosphorylation-regulated kinase 1B (Homo sapiens) (UniProt Q9Y463); experiment: Inhibition of wild-type human full length DYRK1B (M1 to S629 residues) expressed in bacterial expression system at 10 uM by Kinomescan method relative to control
# [20] = molecular target: Ephrin type-B receptor 4 (Homo sapiens) (UniProt P54760); experiment: Inhibition of wild-type human partial length EPHB4 (H585 to G892 residues) expressed in bacterial expression system at 10 uM by Kinomescan method relative to control
# [21] = molecular target: Interleukin-1 receptor-associated kinase 1 (Homo sapiens) (UniProt P51617); experiment: Inhibition of wild-type human partial length IRAK1 (R194 to S712 residues) expressed in mammalian expression system at 10 uM by Kinomescan method relative to control
# [22] = molecular target: Interleukin-1 receptor-associated kinase 3 (Homo sapiens) (UniProt Q9Y616); experiment: Inhibition of wild-type human partial length IRAK3 (V147 to E596 residues) expressed in bacterial expression system at 10 uM by Kinomescan method relative to control
# [23] = molecular target: Serine/threonine-protein kinase 24 (Homo sapiens) (UniProt Q9Y6E0); experiment: Inhibition of wild-type human partial length MST3 (A30 to S311 residues) expressed in bacterial expression system at 10 uM by Kinomescan method relative to control
# [24] = system: Phosphatidylinositol 4,5-bisphosphate 3-kinase catalytic subunit alpha isoform (Homo sapiens), P42336 [E542K]; experiment: Inhibition of human partial length PIK3CA E542K mutant (R108 to N1068 residues) expressed in mammalian expression system at 10 uM by Kinomescan method relative to control
# [25] = molecular target: Serine/threonine-protein kinase Sgk2 (Homo sapiens) (UniProt Q9HBY8); experiment: Inhibition of wild-type human partial length SGK2 (L54 to C427 residues) expressed in mammalian expression system at 10 uM by Kinomescan method relative to control
# [26] = molecular target: NT-3 growth factor receptor (Homo sapiens) (UniProt Q16288); experiment: Inhibition of wild-type human partial length TRKC (Q531 to G825 residues) expressed in mammalian expression system at 10 uM by Kinomescan method relative to control
# Non-receptor tyrosine-protein kinase TYK2 (Homo sapiens), sequence (P29597 whole entry, the tested form may be a part): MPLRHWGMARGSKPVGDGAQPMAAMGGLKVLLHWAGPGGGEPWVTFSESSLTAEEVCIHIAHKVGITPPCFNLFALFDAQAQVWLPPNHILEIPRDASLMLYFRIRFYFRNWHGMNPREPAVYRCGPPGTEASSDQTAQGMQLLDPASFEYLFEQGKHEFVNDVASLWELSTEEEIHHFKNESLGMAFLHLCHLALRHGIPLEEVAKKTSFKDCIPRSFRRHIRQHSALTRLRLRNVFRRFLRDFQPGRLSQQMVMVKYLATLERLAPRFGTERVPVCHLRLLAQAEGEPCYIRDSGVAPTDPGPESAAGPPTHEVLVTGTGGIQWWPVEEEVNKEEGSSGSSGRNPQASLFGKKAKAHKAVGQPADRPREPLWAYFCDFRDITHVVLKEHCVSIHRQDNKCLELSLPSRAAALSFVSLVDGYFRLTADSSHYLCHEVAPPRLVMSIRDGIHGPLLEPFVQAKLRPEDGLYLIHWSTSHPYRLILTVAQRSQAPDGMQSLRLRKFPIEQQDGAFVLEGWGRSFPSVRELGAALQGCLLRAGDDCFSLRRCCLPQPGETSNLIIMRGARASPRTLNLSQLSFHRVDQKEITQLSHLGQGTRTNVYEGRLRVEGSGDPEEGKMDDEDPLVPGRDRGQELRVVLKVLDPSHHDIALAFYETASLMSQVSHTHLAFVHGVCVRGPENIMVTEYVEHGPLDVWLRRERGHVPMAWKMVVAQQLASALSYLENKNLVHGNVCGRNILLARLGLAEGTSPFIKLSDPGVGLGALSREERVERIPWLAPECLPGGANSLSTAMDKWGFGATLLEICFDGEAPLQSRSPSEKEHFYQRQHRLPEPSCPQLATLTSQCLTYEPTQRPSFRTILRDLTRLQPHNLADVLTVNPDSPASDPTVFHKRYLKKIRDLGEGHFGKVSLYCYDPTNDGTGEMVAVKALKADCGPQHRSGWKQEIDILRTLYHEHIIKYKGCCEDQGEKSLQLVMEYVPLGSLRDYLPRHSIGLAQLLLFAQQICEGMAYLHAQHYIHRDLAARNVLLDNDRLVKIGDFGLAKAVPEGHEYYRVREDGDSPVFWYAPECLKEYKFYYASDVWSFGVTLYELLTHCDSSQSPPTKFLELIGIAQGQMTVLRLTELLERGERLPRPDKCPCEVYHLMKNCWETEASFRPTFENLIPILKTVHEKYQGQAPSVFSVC
# Dual specificity tyrosine-phosphorylation-regulated kinase 1B (Homo sapiens), sequence (Q9Y463 whole entry, looked up, the tested form may be a part): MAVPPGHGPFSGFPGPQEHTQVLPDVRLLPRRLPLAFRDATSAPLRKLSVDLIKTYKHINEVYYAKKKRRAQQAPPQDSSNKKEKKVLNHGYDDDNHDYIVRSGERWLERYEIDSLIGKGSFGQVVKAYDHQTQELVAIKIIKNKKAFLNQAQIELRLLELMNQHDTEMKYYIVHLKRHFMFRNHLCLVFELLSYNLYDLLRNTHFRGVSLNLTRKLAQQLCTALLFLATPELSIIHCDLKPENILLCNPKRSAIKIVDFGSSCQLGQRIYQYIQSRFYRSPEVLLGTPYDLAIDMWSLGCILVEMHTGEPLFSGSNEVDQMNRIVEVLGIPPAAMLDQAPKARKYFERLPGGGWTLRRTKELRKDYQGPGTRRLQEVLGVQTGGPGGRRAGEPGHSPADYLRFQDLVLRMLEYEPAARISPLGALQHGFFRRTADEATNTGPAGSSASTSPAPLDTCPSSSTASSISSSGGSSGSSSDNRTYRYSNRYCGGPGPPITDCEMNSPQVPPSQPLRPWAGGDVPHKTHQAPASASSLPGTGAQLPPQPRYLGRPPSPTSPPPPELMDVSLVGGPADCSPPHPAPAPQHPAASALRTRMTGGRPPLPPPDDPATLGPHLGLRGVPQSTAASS
# Interleukin-1 receptor-associated kinase 3 (Homo sapiens), sequence (Q9Y616 whole entry, the tested form may be a part): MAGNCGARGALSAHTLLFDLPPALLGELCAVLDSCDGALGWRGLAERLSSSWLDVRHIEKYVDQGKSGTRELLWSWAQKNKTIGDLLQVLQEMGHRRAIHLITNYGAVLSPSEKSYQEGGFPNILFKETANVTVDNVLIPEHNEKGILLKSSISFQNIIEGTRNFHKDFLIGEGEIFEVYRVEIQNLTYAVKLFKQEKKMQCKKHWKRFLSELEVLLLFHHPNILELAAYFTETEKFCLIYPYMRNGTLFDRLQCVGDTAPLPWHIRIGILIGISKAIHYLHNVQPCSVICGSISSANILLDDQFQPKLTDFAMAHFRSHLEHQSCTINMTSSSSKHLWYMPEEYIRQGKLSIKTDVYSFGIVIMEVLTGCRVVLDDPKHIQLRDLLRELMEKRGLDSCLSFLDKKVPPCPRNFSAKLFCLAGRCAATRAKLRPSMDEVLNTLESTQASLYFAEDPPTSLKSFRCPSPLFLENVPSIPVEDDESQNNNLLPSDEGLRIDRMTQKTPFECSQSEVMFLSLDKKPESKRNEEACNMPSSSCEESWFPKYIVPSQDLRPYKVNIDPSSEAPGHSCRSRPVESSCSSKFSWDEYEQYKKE
# G protein-coupled receptor kinase 4 (Homo sapiens), sequence (P32298 whole entry, looked up, the tested form may be a part): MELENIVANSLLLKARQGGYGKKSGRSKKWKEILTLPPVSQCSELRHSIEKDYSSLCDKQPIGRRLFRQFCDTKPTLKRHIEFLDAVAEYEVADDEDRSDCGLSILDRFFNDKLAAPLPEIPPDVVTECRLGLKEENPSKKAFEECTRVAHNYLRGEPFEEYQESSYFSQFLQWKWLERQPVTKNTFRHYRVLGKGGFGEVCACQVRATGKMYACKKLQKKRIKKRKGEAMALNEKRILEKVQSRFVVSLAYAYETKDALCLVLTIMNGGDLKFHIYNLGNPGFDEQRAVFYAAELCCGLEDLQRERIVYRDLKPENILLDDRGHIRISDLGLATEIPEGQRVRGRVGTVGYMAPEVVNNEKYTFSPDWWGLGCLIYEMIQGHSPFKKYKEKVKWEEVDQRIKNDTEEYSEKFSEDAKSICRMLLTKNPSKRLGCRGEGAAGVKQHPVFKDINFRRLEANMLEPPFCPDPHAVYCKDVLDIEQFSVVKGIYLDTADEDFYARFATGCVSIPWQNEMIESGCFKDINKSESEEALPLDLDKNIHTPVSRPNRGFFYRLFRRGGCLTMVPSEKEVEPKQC
# Interleukin-1 receptor-associated kinase 1 (Homo sapiens), sequence (P51617 whole entry, looked up, the tested form may be a part): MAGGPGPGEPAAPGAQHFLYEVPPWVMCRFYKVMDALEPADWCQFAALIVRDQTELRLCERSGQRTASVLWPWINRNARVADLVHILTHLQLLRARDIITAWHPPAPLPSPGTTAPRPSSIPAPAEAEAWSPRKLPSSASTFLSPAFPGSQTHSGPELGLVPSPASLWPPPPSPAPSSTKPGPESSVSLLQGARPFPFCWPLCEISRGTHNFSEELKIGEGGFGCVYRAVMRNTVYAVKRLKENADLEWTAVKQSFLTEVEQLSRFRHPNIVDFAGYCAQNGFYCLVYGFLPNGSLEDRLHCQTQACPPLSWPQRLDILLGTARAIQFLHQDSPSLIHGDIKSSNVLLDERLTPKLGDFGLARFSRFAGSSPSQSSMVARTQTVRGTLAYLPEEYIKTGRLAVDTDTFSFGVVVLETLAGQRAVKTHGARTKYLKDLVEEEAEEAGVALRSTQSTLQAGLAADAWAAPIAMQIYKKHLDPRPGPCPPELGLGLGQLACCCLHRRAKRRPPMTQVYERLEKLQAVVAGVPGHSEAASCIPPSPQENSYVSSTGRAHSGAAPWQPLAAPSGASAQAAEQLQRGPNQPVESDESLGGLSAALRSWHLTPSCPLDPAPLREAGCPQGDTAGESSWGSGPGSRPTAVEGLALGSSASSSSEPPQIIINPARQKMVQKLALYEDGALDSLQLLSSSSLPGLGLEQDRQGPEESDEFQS
# Ephrin type-B receptor 4 (Homo sapiens), sequence (P54760 whole entry, the tested form may be a part): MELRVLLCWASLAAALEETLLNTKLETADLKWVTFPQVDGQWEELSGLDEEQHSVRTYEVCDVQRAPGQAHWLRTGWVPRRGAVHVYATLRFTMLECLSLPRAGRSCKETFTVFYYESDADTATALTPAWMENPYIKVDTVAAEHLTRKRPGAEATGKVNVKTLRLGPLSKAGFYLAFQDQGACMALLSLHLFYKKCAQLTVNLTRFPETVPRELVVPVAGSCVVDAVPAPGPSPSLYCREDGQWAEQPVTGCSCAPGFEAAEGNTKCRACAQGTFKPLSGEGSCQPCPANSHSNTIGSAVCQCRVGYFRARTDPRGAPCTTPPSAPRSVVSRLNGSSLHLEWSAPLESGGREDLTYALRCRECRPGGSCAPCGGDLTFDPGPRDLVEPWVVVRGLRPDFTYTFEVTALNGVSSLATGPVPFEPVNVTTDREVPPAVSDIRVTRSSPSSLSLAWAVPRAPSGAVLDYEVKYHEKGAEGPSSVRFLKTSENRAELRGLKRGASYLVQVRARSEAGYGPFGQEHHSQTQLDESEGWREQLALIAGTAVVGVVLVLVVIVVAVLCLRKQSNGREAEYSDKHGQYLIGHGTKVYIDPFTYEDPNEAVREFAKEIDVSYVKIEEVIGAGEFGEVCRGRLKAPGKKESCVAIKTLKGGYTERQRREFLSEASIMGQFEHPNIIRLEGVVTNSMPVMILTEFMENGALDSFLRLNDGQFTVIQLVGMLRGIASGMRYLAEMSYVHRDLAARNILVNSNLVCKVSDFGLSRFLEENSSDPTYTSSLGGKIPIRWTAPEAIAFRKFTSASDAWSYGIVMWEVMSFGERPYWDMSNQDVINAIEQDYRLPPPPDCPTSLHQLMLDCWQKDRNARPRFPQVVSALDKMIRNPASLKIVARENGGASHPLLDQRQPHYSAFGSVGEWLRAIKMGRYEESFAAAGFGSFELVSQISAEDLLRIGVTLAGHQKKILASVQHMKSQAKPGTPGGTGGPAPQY
# Aurora kinase B (Homo sapiens), sequence (Q96GD4 whole entry, the tested form may be a part): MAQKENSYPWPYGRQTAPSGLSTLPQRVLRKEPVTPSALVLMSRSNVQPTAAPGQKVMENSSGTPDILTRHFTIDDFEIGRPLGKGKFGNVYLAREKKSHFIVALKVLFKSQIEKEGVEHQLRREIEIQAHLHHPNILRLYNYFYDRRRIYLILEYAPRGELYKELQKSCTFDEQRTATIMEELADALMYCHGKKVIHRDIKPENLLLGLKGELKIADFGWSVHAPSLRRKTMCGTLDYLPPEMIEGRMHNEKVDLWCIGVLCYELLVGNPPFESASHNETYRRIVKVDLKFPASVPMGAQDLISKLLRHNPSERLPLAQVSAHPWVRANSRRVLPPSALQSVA
compound,measurement,setting,value
O=C(Nc1cccc([C@@H]2CN(c3ncnc4[nH]ccc34)CCN2CCO)c1)Nc1c(F)cccc1N1CCCC1,inhibition,[1],100%
same,inhibition,[2],56%
same,inhibition,[3],4.4%
same,inhibition,[4],97%
same,inhibition,[5],47%
same,inhibition,[6],66%
same,inhibition,[7],18%
same,inhibition,[8],69%
same,inhibition,[9],91%
same,inhibition,[10],80%
same,inhibition,[11],0.3%
same,inhibition,[12],92%
same,inhibition,[13],100%
same,inhibition,[14],63%
same,inhibition,[15],71%
O=C(Nc1cccc([C@H]2CCCN(c3ncnc4[nH]ccc34)C2)c1)Nc1ccccc1N1CCCC1,inhibition,[16],12%
same,inhibition,[17],71%
same,inhibition,[18],46%
same,inhibition,[19],94%
same,inhibition,[20],98%
same,inhibition,[21],80%
same,inhibition,[22],92%
same,inhibition,[23],56%
same,inhibition,[24],81%
same,inhibition,[25],34%
same,inhibition,[26],36%
